From PubChem BioAssay AID624270 (Broad Institute, 2012) come the findings set out here.

Structures are written as SMILES. Calls of active or inactive are those of the source. How the calls were made is not given here.

Tested on in one assay: not listed separately
Description: Cholera quorum agonist confirmation, luxS deficient cqsA deficient strain BH1578, luminescence (AID 624270). Particulars: V. cholerae BH1578 lux luminescence, 6 h; at 35 µM (top of the series).
Consider `CCn1c(CC(=O)Nc2cccc(Cl)c2Cl)nnc1SCCOc1ccc(OC)cc1`, for which the activation (light induction) was 1.79% (inactive).

Regarding `CCn1nnc(NCc2ccc(C)cc2)n1`, the activation (light induction) was 0.27% (inactive).

In the case of `CCCn1nnnc1NCc1ccccc1Cl`, the activation (light induction) was 1.22% (inactive).

For `Cc1ccc(CC(=O)NC2CCCC2)cc1`, the activation (light induction) was 15.8% (inactive).

In the next assay the test system is V. cholerae BH1578 lux luminescence, 6 h. The assay is described as above.
Conditions: not given
One may read the AC50 as the concentration at which the activity in the assay is half-maximal. Consider `CCn1nnnc1NCc1ccc(N2CCCC2)cc1`, for which the AC50 was 0.00414 µM.

Take `COc1ccccc1NC(=O)COC(=O)c1ccc(C)cc1`: the AC50 is 0.397 µM.

Consider `Cc1c(Cl)cccc1-n1cnc(=O)c2ccccc21`, for which the AC50 is > 35 µM (inactive).

With `Cc1ccc(OCCNC(=O)c2cccc(C)c2)cc1`, the concentration at half-maximal activity (AC50) is 0.096 µM.

With `O=c1ncn(-c2cccc(Cl)c2)c2ccccc12`, the AC50 is 0.00129 µM.

Turning to `CCCn1nnnc1NCc1ccc(N(CC)CC)cc1`, the AC50 is 0.0548 µM.

Consider `COc1ccc(Cl)cc1NC(=O)COC(=O)c1ccc(C)o1`, for which the AC50 was 0.0638 µM.

As for `COc1ccccc1NC(=O)COC(=O)c1cc2c(s1)CCC2`, the AC50 was 0.0662 µM.

As for `CCC(C)NC(=O)Cc1ccc(-c2ccccc2)cc1` (stereo not given), the AC50 was 1.24 µM.

Turning to `O=C(Nc1nnc(-c2ccc3c(c2)OCCO3)o1)C1CCCCC1`, the AC50 was 1.38 µM.

`Cc1ccc2cc3c(NC(=O)c4ccco4)nn(C)c3nc2c1`: the AC50 was 2.87 µM.

Take `COc1ccccc1NC(=O)COC(=O)c1oc2ccccc2c1C`: the concentration at half-maximal activity (AC50) is 1.57 µM.

Regarding `CCCn1nnnc1NCc1ccc(C(C)C)cc1`, the AC50 was 0.0452 µM.

For `CCCn1nnnc1NCc1ccc(N2CCCC2)cc1`, the AC50 was 0.0138 µM.

Turning to `CCOc1ccc(Nc2ccc3nonc3c2[N+](=O)[O-])cc1`, the AC50 was 0.183 µM.

For the molecule `O=C(Cc1ccc(-c2ccccc2)cc1)NC1CCCC1`, the AC50 was 0.104 µM.
